Consider two compounds from publication PMC12246756 (Frontiers in Pharmacology, 2025).

One may read the IC50 as the point on the concentration scale where inhibition reaches its midpoint.

The test system of assay [1] is MCF-7. Kind of assay: cells. The assay is classed as cell-based. As to conditions: Homo sapiens, MCF7; MTT assay, 48 h. How it is done: (§1) Cell viability was assessed using the MTT assay, as outlined in previous studies ([Majeed et al., 2014]; [Amin et al., 2025]). Briefly, A549, A375, MCF-7 and MDA-MB231 cells (10 × 10^3 cells/well) were seeded in 96-well plates and incubated for 24 h at 37°C in a 5% CO2 atmosphere. After this incubation, the cells were treated with test compounds for another 48 h. At 44th hour of treatment, the cells were incubated with MTT (2.5 mg/mL) for additional 4 h. At 48th hour, DMSO was added (100 µL/well), to dissolve formazan crystals. Absorbance was measured at 570 nm. Cell viability was calculated relative to untreated controls. IC50 values were determined from independent triplicate experiments using GraphPad™ Prism 8.0 software. […]
Background: Formazan colour is commonly taken as a measure of viable cells.

Assay [2] has as its system MDA-MB 231. The assay can be described thus: cells. As to conditions: Homo sapiens, MTT assay, 48 h. The class given is cell-based. How it is done: as §1
In assay [3] the test system is A549. The assay can be described thus: cells. The assay is classed as cell-based. As to conditions: Homo sapiens, MTT assay, 48 h. How it is done: as §1
For assay [4], the system named is A375. The assay can be described thus: cells. The assay is classed as cell-based. As to conditions: Homo sapiens, A-375; MTT assay, 48 h. How it is done: as §1
For assay [5], the system named is mitosis cell cycle. Details: method as in Taylor, 1965. As to conditions: concentration of 50 nM; ref Taylor, 1965; cited from earlier work.

On to `CC(=O)O[C@H]1C(=O)[C@@]2(C)[C@H]([C@H](OC(=O)c3ccccc3)[C@]3(O)C[C@H](OC(=O)[C@H](O)[C@@H](NC(=O)c4ccccc4)c4ccccc4)C(C)=C1C3(C)C)[C@]1(OC(C)=O)CO[C@@H]1C[C@@H]2O` [Paclitaxel], for which the IC50 in assay [1] was determined as 0.014 ± 0.001 µM; in assay [2], 0.02 ± 0.002 µM; in assay [3], 0.028 ± 0.008 µM; in assay [4], 0.017 ± 0.028 µM.

`COc1cc2c(c(OC)c1OC)-c1ccc(OC)c(=O)cc1[C@@H](NC(C)=O)CC2` [Colchicine]: the “block of mitotic cells” value in assay [5] was “blocks almost all the prophase, metaphase, and anaphase cells”.
